Patent US11845770B2, “Ascaroside derivatives and methods of use” (California Institute of Technology, priority 2019, dated 2023)

Key:
Format in all cases: in vitro ADME
[1] = Stability in hepatocytes (human); conditions: cryopreserved human hepatocytes (suspension)
Procedure: (§1) 10 mM of 1 was provided as a 1000× stock solution in dimethylsulfoxide (DMSO), and the stock solution was diluted to 1 mM with DMSO in 96-well plates. 30 mM of positive compounds (7-ethoxycoumarin and 7-hydroxycoumarin) were provided as a 1000× stock solution in DMSO, and the stock solution was diluted to 3 mM with DMSO in 96-well plates. 20 μL of 1000× stock solution of each compound were pipetted and was mixed with 380 μL of 45% MeOH/H2O to obtain 50 μM of 1 and 150 μM of the positive control compound solutions to form 50× intermediate solutions. 20 μL of 50× intermediate solution of each compound were pipetted and was mixed with […] of pre-warmed incubation medium to obtain 5 μM of 1 and 15 μM of the positive control compound solutions to form 5× working solutions. The incubation medium was Williams' Medium E (no phenol red) containing 2 mM L-glutamine and 25 mM HEPES. 10 μL of 5× working solutions of each compound were pipetted into appropriate wells in a 96-well plate for time points of 0 minutes, 15 minutes, 30 minutes, 60 minutes, and 90 minutes in duplicates. The plates with compounds were kept warm in an incubator at 37° C.
(§2) A cell suspension was prepared by thawing cryopreserved cells, isolating the cells, and suspending the cells in thawing medium. […]
(§3) The remaining percentage of 1 after incubation was calculated according to the following equation. […]

[2] = Plasma protein binding, HT-Dialysis (human); conditions: pH 7.4, dialysis 4 hours, read-out: percent unbound
Procedure: HT-Dialysis plate (Model HTD 96 b, Cat #1006) and the dialysis membrane (molecular weight cut off 12-14 KDa, Cat #1101) can be purchased from HT Dialysis LLC (Gales Ferry, CT).
The plasma was thawed under running cold tap water and centrifuged at 3220×g for 5 min to remove any clots. The pH value was checked and recorded. Only plasma within range of pH 7.0 to pH 8.0 was used. The dialysis membrane was pretreated according to the manufacturer's instructions. Briefly, the dialysis membrane strips were soaked in ultra-pure water at room temperature for approximately 1 hr. After that, each membrane strip that contained 2 membranes was separated and soaked in ethanol:water (20:80 v:v) for approximately 20 min. The membrane was rinsed and soaked for 20 min in ultra-pure water.
Aliquots of 50 μL loading plasma (matrix) containing compound 1 or warfarin in triplicate were transferred to the appropriate wells of a sample collection plate. The samples were matched with dialysis buffer to obtain a final volume of 100 μL with a volume ratio of plasma (matrix):dialysis buffer (1:1, v:v) in each well. […]
The % Unbound, % Bound, % Recovery and % Remaining were calculated using the following equations: % Unbound=100×F/T % Bound=100−% Unbound % Recovery=100×(F+T)/T0 • F=the compound 1 concentration on the receiver side of the membrane/Correction Factor. […]

[3] = Stability in hepatocytes (rat); conditions: cryopreserved rat hepatocytes (suspension)
Procedure: as §1, §2, §3

[4] = Stability in plasma (rat); conditions: after 120 minutes, 37° C.
Procedure: The pH of plasma was adjusted to 7.4±0.1 if required. 1 mM intermediate solution was prepared by diluting 10 μL of the 10 mM stock solution of 1 with 90 μL DMSO; 1 mM intermediate of positive control propantheline bromide was prepared by diluting 10 μL of the stock solution with 90 μL ultra-pure water. 100 μM dosing solution was prepared by diluting 10 μL of the 1 mM intermediate solution with 90 μL of 45% MeOH/H2O. 98 μL of blank plasma was spiked with 2 μL of the 100 μM dosing solution to achieve a final concentration of 2 μM of the compound in duplicate. Samples were incubated at 37° C. in a water bath. At each time point (0, 10, 30, 60 and 120 min), 400 μL of stop solution (200 ng/mL tolbutamide plus 200 ng/mL labetalol in 50% ACN/MeOH) was added and was mixed thoroughly to precipitate protein. Sample plates were centrifuged at 4,000 rpm for 10 min. An aliquot of supernatant (100 μL) was transferred from each well and was mixed with 200 μL ultra-pure water. The samples were shaken at 800 rpm for about 10 min before LC/MS/MS analysis.
The remaining percentage of compound 1 (test article) after incubation was calculated according to the following equation.

| SMILES | half-life at 1 µM [1] [min] | fraction unbound at 4 h [2] | half-life at 1 µM [3] [min] | remaining percentage after incubation [4] [%] |
| --- | --- | --- | --- | --- |
| C[C@H](CC/C=C/C(=O)OC(C)(C)C)O[C@@H]1O[C@@H](C)[C@H](O)C[C@H]1O [Compound 1, tert-butyl (2E,6R)-6-{[(2R,3R,5R,6S)-3,5-dihydroxy-6-methyloxan-2-yl]oxy}hept-2-enoate] | 106 | 0.329 | 23.1 | 19.2 |
| C[C@H](CC/C=C/C(=O)O)O[C@@H]1O[C@@H](C)[C@H](O)C[C@H]1O [ascr #7, reference compound] | > 217 | 0.868 | > 217 | 99.8 |
